Results taken from PubChem BioAssay AID1919003 (Molecular Pharmacology Branch, DTP, NCI, 2023).
Values joined by “and” are separate entries in the source; they are usually repeats but may differ in a detail not shown here. Identical values can stand only once.

Tested on: 786-0 complex spheroids with HUVEC/MSC, growth % test/control
Test: Anticancer human tumor 786-0 cell line growth inhibition [AhR];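 also: compound exposure lasted seven days before the read-out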
Details: for viability, T/C: stronger effect = lower value
Source text: Multicellular complex tumor spheroid response to aryl hydrocarbon receptor antagonists in combination with a variety of drugs and investigational agents in selected tumor cell lines
The current study was undertaken to assess response to aryl hydrocarbon receptor antagonists in combination with standard-of-care drugs and investigational agents in solid tumor complex spheroid models. Complex spheroids include a stromal component modeled by human endothelial cells (HUVEC) and fibroblasts modeled by human mesenchymal stem cells (MSCs). The concentration ranges selected for each drug and investigational agent were based upon clinically achievable concentrations if the clinical Cmax of the agent was known.
Compounds. The drugs and investigational agents: BAY 2416964 (NSC825713), GNF351 (NSC835774), CH-223191 (NSC835775), CPI-455 (NSC825282), aza-TdCyd (NSC777586), decitabine (NSC127716), belinostat (NSC758774), entinostat (NSC756642), pevonedistat (NSC761192), tazemetostat (NSC777109), talazoparib (NSC765396), olaparib (NSC753686), selinexor (NSC780203), nedisertib (M3814, NSC802822), bortezomib (NSC756655), venetoclax (NSC766270), doxorubicin (NSC123127), elimusertib (BAY189344, NSC800525), ceralasertib (AZD6738, NSC777638), TAK-243 (NSC785004), alisertib (NSC759677), etoposide (NSC141540), topotecan (NSC609699), eribulin (NSC707389), gemcitabine (NSC613327), carboplatin (NSC241240), cisplatin (NSC119875), and SN-38 (NSC673596) were obtained from the National Cancer Institute (NCI) Developmental Therapeutics Program Chemical Repository (32). The FDA-approved anticancer drug set is available from the Developmental Therapeutics Program at https://dtp.cancer.gov/organization/dscb/obtaining/available plates.htm. […] The stock solutions were prepared in dimethyl sulfoxide (DMSO, Sigma-Aldrich, St. Louis, MO, cat. D2650), except for the platinum compounds which were prepared in saline (Quality Biological, Gaithersburg, MD, cat. 114-055-101), at 800-fold the tested concentration and stored at -70 degrees C prior to their use. All drugs and investigational agents were tested over a range starting from a high concentration at or near the clinical Cmax and decreasing in half-log increments. If the clinical Cmax for an agent had not been determined, the highest concentration tested was 10 microM (Table 1).
Cell Culture. All cells were maintained in an incubator at 37 degrees C and 5% CO2 with 95% humidity. The PDC lines were cultured according to standard operating procedures established by the NCI PDMR (https://pdmr.cancer.gov). Briefly, all PDCs were thawed and cultured in Matrigel-coated flasks prepared with a working solution of 1X Ham's F-12 nutrient mix, without supplementation (Invitrogen, Waltham, MA, cat. 11765054), 100 U/mL penicillin-streptomycin (Invitrogen, cat. 15140122), and 2.5% Matrigel (Corning Inc., Corning, NY, cat. 354248) for the first three passages. All PDCs were cultured in complete DMEM/F-12 media containing advanced DMEM/F-12 (Invitrogen, cat. 12634028), 4.9% defined fetal bovine serum, heat inactivated (HyClone Laboratories Inc., Logan, UT, cat. SH30070.03HI), 389 ng/mL hydrocortisone (Sigma-Aldrich, cat. H4001), 9.7 ng/mL human EGF recombinant protein (Invitrogen, cat. PHG0313), 23.4 microg/mL adenine (Sigma-Aldrich, cat. A2786), 97.3 U/mL penicillin-streptomycin (Invitrogen, cat. 15140122), 1.9 mM L-glutamine (Invitrogen, cat. 25030081), and 9.7 microM Y-27632 dihydrochloride (Tocris Bioscience, Bristol, United Kingdom, cat. 1254). The PDCs were cultured in complete DMEM/F12 media without 10 microM Y-27632 dihydrochloride for at least two passages prior to the screen. The established cell lines NCI-H1341 and […] were cultured in DMEM/F-12, HEPES (Invitrogen, cat. 11330032), 5% defined fetal bovine serum (HyClone Laboratories Inc., cat. SH30070.03), ITS premix universal culture supplement [insulin (5 microg/mL), transferrin (5 microg/mL), and selenious acid (5 ng/mL)] […]

[1] = curve of first compound, second compound 0.1 µM
[2] = curve of first compound, second compound 0.316 µM
[3] = curve of first compound, second compound 1 µM
[4] = curve of first compound, second compound 3.16 µM
[5] = curve of first compound, second compound 10 µM

**Q.** Which IC50 [1] does the source give for `Nc1ncn(C2CC(O)C(CO)S2)c(=O)n1` (configuration not stated) + Cc1cncc(-c2nc(NCCc3c[nH]c4ccccc34)c3ncn(C(C)C)c3n2)c1 here?
**A.** > 300 nM

**Q.** And the IC50 [2]?
**A.** > 300 nM

**Q.** What about the IC50 [3] of the same molecule?
**A.** > 300 nM

**Q.** And the IC50 [4]?
**A.** 22.3 nM

**Q.** And the IC50 [5]?
**A.** < 0.949 nM

**Q.** What about the viability, T/C (second compound 0.1 µM, first compound 0.000949 µM) of the same molecule?
**A.** 120%

**Q.** What about the viability, T/C (second compound 0.1 µM, first compound 0.003 µM) of the same molecule?
**A.** 123%

**Q.** What about the viability, T/C (second compound 0.1 µM, first compound 0.00949 µM) of the same molecule?
**A.** 122%

**Q.** And the viability, T/C (second compound 0.1 µM, first compound 0.03 µM)?
**A.** 118%

**Q.** What about the viability, T/C (second compound 0.1 µM, first compound 0.0949 µM) of the same molecule?
**A.** 94.2%

**Q.** What about the viability, T/C (second compound 0.1 µM, first compound 0.3 µM) of the same molecule?
**A.** 82.7%

**Q.** And the viability, T/C (second compound 0.316 µM, first compound 0.000949 µM)?
**A.** 121%

**Q.** And the viability, T/C (second compound 0.316 µM, first compound 0.003 µM)?
**A.** 117%

**Q.** And the viability, T/C (second compound 0.316 µM, first compound 0.00949 µM)?
**A.** 121%

**Q.** And the viability, T/C (second compound 0.316 µM, first compound 0.03 µM)?
**A.** 110%

**Q.** And the viability, T/C (second compound 0.316 µM, first compound 0.0949 µM)?
**A.** 94.7%

**Q.** And the viability, T/C (second compound 0.316 µM, first compound 0.3 µM)?
**A.** 79.3%

**Q.** And the viability, T/C (second compound 1 µM, first compound 0.000949 µM)?
**A.** 101%

**Q.** What about the viability, T/C (second compound 1 µM, first compound 0.003 µM) of the same molecule?
**A.** 102%

**Q.** And the viability, T/C (second compound 1 µM, first compound 0.00949 µM)?
**A.** 94.3%

**Q.** What about the viability, T/C (second compound 1 µM, first compound 0.03 µM) of the same molecule?
**A.** 90.3%

**Q.** What about the viability, T/C (second compound 1 µM, first compound 0.0949 µM) of the same molecule?
**A.** 61.1%

**Q.** And the viability, T/C (second compound 1 µM, first compound 0.3 µM)?
**A.** 57.6%

**Q.** And the viability, T/C (second compound 3.16 µM, first compound 0.000949 µM)?
**A.** 69.2%

**Q.** And the viability, T/C (second compound 3.16 µM, first compound 0.003 µM)?
**A.** 65.2%

**Q.** What about the viability, T/C (second compound 3.16 µM, first compound 0.00949 µM) of the same molecule?
**A.** 59.8%

**Q.** What about the viability, T/C (second compound 3.16 µM, first compound 0.03 µM) of the same molecule?
**A.** 46.6%

**Q.** What about the viability, T/C (second compound 3.16 µM, first compound 0.0949 µM) of the same molecule?
**A.** 40.4%

**Q.** And the viability, T/C (second compound 3.16 µM, first compound 0.3 µM)?
**A.** 39.9%

**Q.** What about the viability, T/C (second compound 10 µM, first compound 0.000949 µM) of the same molecule?
**A.** 17.2%

**Q.** And the viability, T/C (second compound 10 µM, first compound 0.003 µM)?
**A.** 14.9%

**Q.** What about the viability, T/C (second compound 10 µM, first compound 0.00949 µM) of the same molecule?
**A.** 22%

**Q.** And the viability, T/C (second compound 10 µM, first compound 0.03 µM)?
**A.** 15.6%

**Q.** What about the viability, T/C (second compound 10 µM, first compound 0.0949 µM) of the same molecule?
**A.** 10.9%

**Q.** What about the viability, T/C (second compound 10 µM, first compound 0.3 µM) of the same molecule?
**A.** 9.94%

**Q.** With `COc1ccc([C@@H](O)c2cc(-c3ncnc4cc(N5CCOCC5)ccc34)c(F)cc2Cl)nn1` + Cc1cncc(-c2nc(NCCc3c[nH]c4ccccc34)c3ncn(C(C)C)c3n2)c1 as the molecule, how does the IC50 [1] read?
**A.** > 10000 nM

**Q.** What about the IC50 [2] of the same molecule?
**A.** > 10000 nM

**Q.** What about the IC50 [3] of the same molecule?
**A.** > 10000 nM

**Q.** What about the IC50 [4] of the same molecule?
**A.** > 10000 nM

**Q.** And the IC50 [5]?
**A.** < 31.6 nM

**Q.** And the viability, T/C (second compound 0.1 µM, first compound 0.0316 µM)?
**A.** 103%

**Q.** And the viability, T/C (second compound 0.1 µM, first compound 0.1 µM)?
**A.** 111%

**Q.** And the viability, T/C (second compound 0.1 µM, first compound 0.316 µM)?
**A.** 111%

**Q.** And the viability, T/C (second compound 0.1 µM, first compound 1 µM)?
**A.** 112%

**Q.** And the viability, T/C (second compound 0.1 µM, first compound 3.16 µM)?
**A.** 109%

**Q.** What about the viability, T/C (second compound 0.1 µM, first compound 10 µM) of the same molecule?
**A.** 89.9%

**Q.** What about the viability, T/C (second compound 0.316 µM, first compound 0.0316 µM) of the same molecule?
**A.** 112%

**Q.** And the viability, T/C (second compound 0.316 µM, first compound 0.1 µM)?
**A.** 111%

**Q.** What about the viability, T/C (second compound 0.316 µM, first compound 0.316 µM) of the same molecule?
**A.** 114%

**Q.** And the viability, T/C (second compound 0.316 µM, first compound 1 µM)?
**A.** 120%

**Q.** And the viability, T/C (second compound 0.316 µM, first compound 3.16 µM)?
**A.** 103%

**Q.** And the viability, T/C (second compound 0.316 µM, first compound 10 µM)?
**A.** 95.4%

**Q.** What about the viability, T/C (second compound 1 µM, first compound 0.0316 µM) of the same molecule?
**A.** 107%

**Q.** And the viability, T/C (second compound 1 µM, first compound 0.1 µM)?
**A.** 103%

**Q.** And the viability, T/C (second compound 1 µM, first compound 0.316 µM)?
**A.** 96.4%

**Q.** What about the viability, T/C (second compound 1 µM, first compound 1 µM) of the same molecule?
**A.** 104%

**Q.** What about the viability, T/C (second compound 1 µM, first compound 3.16 µM) of the same molecule?
**A.** 103%

**Q.** What about the viability, T/C (second compound 1 µM, first compound 10 µM) of the same molecule?
**A.** 84.8%

**Q.** What about the viability, T/C (second compound 3.16 µM, first compound 0.0316 µM) of the same molecule?
**A.** 73%

**Q.** And the viability, T/C (second compound 3.16 µM, first compound 0.1 µM)?
**A.** 73.3%

**Q.** And the viability, T/C (second compound 3.16 µM, first compound 0.316 µM)?
**A.** 66.4%

**Q.** And the viability, T/C (second compound 3.16 µM, first compound 1 µM)?
**A.** 62.7%

**Q.** And the viability, T/C (second compound 3.16 µM, first compound 3.16 µM)?
**A.** 61.2%

**Q.** What about the viability, T/C (second compound 3.16 µM, first compound 10 µM) of the same molecule?
**A.** 61.5%

**Q.** What about the viability, T/C (second compound 10 µM, first compound 0.0316 µM) of the same molecule?
**A.** 6.44%

**Q.** And the viability, T/C (second compound 10 µM, first compound 0.1 µM)?
**A.** 5.3%

**Q.** And the viability, T/C (second compound 10 µM, first compound 0.316 µM)?
**A.** 8.33%

**Q.** What about the viability, T/C (second compound 10 µM, first compound 1 µM) of the same molecule?
**A.** 5.44%

**Q.** What about the viability, T/C (second compound 10 µM, first compound 3.16 µM) of the same molecule?
**A.** 5.99%

**Q.** And the viability, T/C (second compound 10 µM, first compound 10 µM)?
**A.** 9.73%

**Q.** Which results are given for `COc1cc(C2c3cc4c(cc3C(OC3OC5COC(C)OC5C(O)C3O)C3COC(=O)C23)OCO4)cc(OC)c1O` (configuration not stated)?
**A.** viability, T/C (compound 0.0316 µM): 101% and 104% and 103%; viability, T/C (compound 0.1 µM): 100% and 95.1% and 109%; viability, T/C (compound 0.316 µM): 75% and 74.2% and 81.8%; viability, T/C (compound 1 µM): 46.5% and 25.8% and 49%; viability, T/C (compound 3.16 µM): 26.6% and 22.7% and 27%; viability, T/C (compound 10 µM): 5.89% and 5.81% and 13.3%; IC50 (curve of compound): 951 nM and 572 nM and 989 nM
